Source: patent US6806230B1, “Pyrimidine derivatives and herbicides containing them” (Kumiai Chemical Industry Co., Ltd., priority 1999, dated 2004)

Tests used:
Assay type in all cases: in vivo
[1] = test system: monochoria (Mo); assay: Test Example 1: herbicidal effects by flooded paddy field treatment; design: herbicidal effects, Mo (monochoria):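 0-5 growth inhibition grade; 5 = over 90%; 4 = 70-90%; 3 = 50-70%; 2 = 30-50%; 1 = 10-30%; 0 = under 10%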; details: for herbicidal effects, Mo (monochoria): dose 100 g active ingredient per 10 ares, examined on the 21st day after treatment, standards of Table 44;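 as to Herbicidal effect index, Mo: 0-5 growth inhibition grade; 5 = over 90%; 4 = 70-90%; 3 = 50-70%; 2 = 30-50%; 1 = 10-30%; 0 = under 10%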
Summary of the method: (§1)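 Herbicidal effect is a graded score assigned 21 days after treatment. Application was one day after sowing into flooded (3 cm) puddled paddy soil, with diluted wettable powder dropped onto the water at 100 g active ingredient per 10 ares. Plants were kept in a greenhouse.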

[2] = test system: barnyard grass (Ec); assay: Test Example 2: herbicidal effects by upland soil treatment; design: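 0-5 growth inhibition grade; 5 = over 90%; 4 = 70-90%; 3 = 50-70%; 2 = 30-50%; 1 = 10-30%; 0 = under 10%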; details: dose 100 g active ingredient per 10 ares, examined on the 21st day after treatment
Summary of the method: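 Pre-emergence test: barnyard grass and green foxtail sown in upland soil, then soil surface sprayed with wettable-powder formulation at 100 g active ingredient per 10 ares (100 l per 10 ares). Grown in greenhouse; herbicidal effect scored on a rating scale 21 days after treatment.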

[3] = test system: barnyard grass (Ec); assay: Test Example 3: herbicidal effects by foliage treatment in upland field; design: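 0-5 growth inhibition grade; 5 = over 90%; 4 = 70-90%; 3 = 50-70%; 2 = 30-50%; 1 = 10-30%; 0 = under 10%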; details: dose 100 g active ingredient per 10 ares, examined on the 14th day after treatment
Description: In a 80 cm^2 plastic pot, upland soil was filled, and seeds of barnyard grass (Ec) and green foxtail (Se) were sown and cultured in a green house for 2 weeks. Then, a wettable powder prepared in accordance with Formulation Example 1 was diluted with water and applied to the entire foliage from above the plants by means of a small size spray at a rate of 100 l per 10 ares so that the dose of the active ingredient would be 100 g per 10 ares. Thereafter, cultivation was carried out in a green house, and on the 14th day after the treatment, the herbicidal effects were examined in accordance with the standards of Table 44.

[4] = test system: barnyard grass (Eo); assay: Test Example 1: herbicidal effects by flooded paddy field treatment; design: herbicidal effects, Eo (barnyard grass):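 0-5 growth inhibition grade; 5 = over 90%; 4 = 70-90%; 3 = 50-70%; 2 = 30-50%; 1 = 10-30%; 0 = under 10%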; details: for herbicidal effects, Eo (barnyard grass): dose 100 g active ingredient per 10 ares, examined on the 21st day after treatment, standards of Table 44;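 as to Herbicidal effect index, Eo: 0-5 growth inhibition grade; 5 = over 90%; 4 = 70-90%; 3 = 50-70%; 2 = 30-50%; 1 = 10-30%; 0 = under 10%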
Summary of the method: as §1

[5] = test system: rice (Or); assay: Test Example 4: selectivity for a crop plant by flooded paddy field treatment; design: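 0-5 phytotoxicity grade; 5 = over 90%; 4 = 70-90%; 3 = 50-70%; 2 = 30-50%; 1 = 10-30%; 0 = under 10%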; details: rice transplanted at second leaf stage, dose 25 gai/10a, 21st day after treatment, index per Table 44
Summary of the method: (§2)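 Scores reflect visual herbicidal effect, graded on a standard scale 21 days after water-surface treatment. The product, a wettable powder diluted with water, went on dropwise at 25 g a.i. per 10 ares one day after flooding to 3 cm. Weeds grew from sown seed and rice was transplanted at second-leaf stage.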

[6] = test system: monochoria (Mo); assay: as above; design: scale not given here; details: monochoria, dose 25 gai/10a, 21st day after treatment, index per Table 44
Summary of the method: as §2

[7] = test system: barnyard grass (Eo); assay: as above; design: scale not given here; details: barnyard grass, dose 25 gai/10a, 21st day after treatment, index per Table 44
Summary of the method: as §2

[8] = dose 100 gai/10a, examined on 21st day after treatment, index 0-5 per Table 44

SMILES: CC(C)C(c1cncnc1C(F)(F)F)N(C)C(=O)Cc1ccc(Cl)s1 (racemic) [2-25]
- herbicidal effects, Mo (monochoria) [1]: 5
- Ec (herbicidal effects, index) [2]: 5
- Ec (herbicidal effects, index) [3]: 5
- herbicidal effects, Eo (barnyard grass) [4]: 5
- Or (herbicidal effect index on crop) [5]: 1
- Mo (herbicidal effect index) [6]: 5
- Eo (herbicidal effect index) [7]: 5

SMILES: CCc1ncncc1C(C(C)C)N(C)S(=O)(=O)c1ccccc1 (racemic) [4-2]
- herbicidal effects, Mo (monochoria) [1]: 5
- Ec (herbicidal effects, index) [2]: 5
- Ec (herbicidal effects, index) [3]: 5
- herbicidal effects, Eo (barnyard grass) [4]: 5
- Or (herbicidal effect index on crop) [5]: 1
- Mo (herbicidal effect index) [6]: 5
- Eo (herbicidal effect index) [7]: 5

SMILES: CCc1ncncc1C(C(C)C)N(C)C(=O)Cc1ccc(Cl)s1 (racemic) [2-75]
- herbicidal effects, Mo (monochoria) [1]: 5
- Ec (herbicidal effects, index) [2]: 5
- Ec (herbicidal effects, index) [3]: 5
- herbicidal effects, Eo (barnyard grass) [4]: 5
- Or (herbicidal effect index on crop) [5]: 1
- Mo (herbicidal effect index) [6]: 5
- Eo (herbicidal effect index) [7]: 5

SMILES: CC(C)c1ncncc1C(C(C)C)N(C)C(=O)Cc1ccc(Cl)s1 (racemic) [2-71]
- herbicidal effects, Mo (monochoria) [1]: 5
- Ec (herbicidal effects, index) [2]: 5
- Ec (herbicidal effects, index) [3]: 5
- herbicidal effects, Eo (barnyard grass) [4]: 5
- Or (herbicidal effect index on crop) [5]: 1
- Mo (herbicidal effect index) [6]: 5
- Eo (herbicidal effect index) [7]: 5

SMILES: CC(C)C(c1cncnc1C(F)(F)F)N(C)C(=O)NCc1ccccc1 (racemic) [1-461]
- herbicidal effects, Mo (monochoria) [1]: 5
- Ec (herbicidal effects, index) [2]: 5
- Ec (herbicidal effects, index) [3]: 4
- herbicidal effects, Eo (barnyard grass) [4]: 5
- Or (herbicidal effect index on crop) [5]: 1
- Mo (herbicidal effect index) [6]: 5
- Eo (herbicidal effect index) [7]: 5

SMILES: CN(C(=O)Cc1ccc(F)cc1)C(c1ccsc1)c1cncnc1C(F)(F)F (racemic) [1-441]
- herbicidal effects, Mo (monochoria) [1]: 5
- Ec (herbicidal effects, index) [2]: 5
- Ec (herbicidal effects, index) [3]: 4
- herbicidal effects, Eo (barnyard grass) [4]: 5
- Or (herbicidal effect index on crop) [5]: 1
- Mo (herbicidal effect index) [6]: 5
- Eo (herbicidal effect index) [7]: 5

SMILES: C#CCN(C(=O)Cc1ccc(Cl)s1)C(c1cncnc1C(F)(F)F)C(C)C (racemic) [2-74]
- herbicidal effects, Mo (monochoria) [1]: 5
- Ec (herbicidal effects, index) [2]: 5
- Ec (herbicidal effects, index) [3]: 4
- herbicidal effects, Eo (barnyard grass) [4]: 5
- Or (herbicidal effect index on crop) [5]: 1
- Mo (herbicidal effect index) [6]: 5
- Eo (herbicidal effect index) [7]: 5

SMILES: COc1ccc(C(c2cncnc2C(F)(F)F)N(C)C(=O)Cc2ccc(Cl)cc2)cc1 (racemic) [1-486]
- herbicidal effects, Mo (monochoria) [1]: 5
- Ec (herbicidal effects, index) [3]: 4
- herbicidal effects, Eo (barnyard grass) [4]: 5
- Or (herbicidal effect index on crop) [5]: 1
- Mo (herbicidal effect index) [6]: 5
- Eo (herbicidal effect index) [7]: 5

SMILES: CN(C(=O)Cc1ccccc1)C(c1ccc(Cl)cc1)c1cncnc1C(F)(F)F (racemic) [1-221]
- herbicidal effects, Mo (monochoria) [1]: 5
- Ec (herbicidal effects, index) [3]: 4
- herbicidal effects, Eo (barnyard grass) [4]: 5
- Or (herbicidal effect index on crop) [5]: 1
- Mo (herbicidal effect index) [6]: 5
- Eo (herbicidal effect index) [7]: 5

SMILES: CC(C)C(c1cncnc1C(F)(F)F)N(C)C(=O)N(C)c1ccccc1F (racemic) [1-536]
- herbicidal effects, Mo (monochoria) [1]: 5
- Ec (herbicidal effects, index) [2]: 5
- Ec (herbicidal effects, index) [3]: 4
- herbicidal effects, Eo (barnyard grass) [4]: 5

SMILES: CCCC(c1cncnc1C(C)C)N(C)C(=O)Cc1ccc(F)cc1 (racemic) [1-450]
- herbicidal effects, Mo (monochoria) [1]: 5
- Ec (herbicidal effects, index) [2]: 5
- Ec (herbicidal effects, index) [3]: 4
- herbicidal effects, Eo (barnyard grass) [4]: 5

SMILES: COc1ccccc1C(c1cncnc1C(F)(F)F)N(C)C(=O)Cc1ccccc1 (racemic) [1-488]
- herbicidal effects, Mo (monochoria) [1]: 5
- Ec (herbicidal effects, index) [2]: 5
- Ec (herbicidal effects, index) [3]: 5
- herbicidal effects, Eo (barnyard grass) [4]: 5

SMILES: COc1ncncc1C(C(C)C)N(C)C(=O)Cc1ccc(Cl)cc1 (racemic) [1-403]
- herbicidal effects, Mo (monochoria) [1]: 5
- Ec (herbicidal effects, index) [2]: 5
- Ec (herbicidal effects, index) [3]: 4
- herbicidal effects, Eo (barnyard grass) [4]: 5

SMILES: COCc1ncncc1C(C(C)C)N(C)C(=O)Cc1ccc(Cl)cc1 (racemic) [1-589]
- herbicidal effects, Mo (monochoria) [1]: 5
- Ec (herbicidal effects, index) [2]: 5
- Ec (herbicidal effects, index) [3]: 4
- herbicidal effects, Eo (barnyard grass) [4]: 5

SMILES: CC(C)C(c1cncnc1C(F)(F)F)N(C)C(=O)N(C)c1ccc(Cl)cc1 (racemic) [1-427]
- herbicidal effects, Mo (monochoria) [1]: 5
- Ec (herbicidal effects, index) [2]: 5
- Ec (herbicidal effects, index) [3]: 4
- herbicidal effects, Eo (barnyard grass) [4]: 5

SMILES: CC(C)C(c1cncnc1C(F)(F)F)N(C)C(=O)N(C)c1ccc(F)cc1 (racemic) [1-426]
- herbicidal effects, Mo (monochoria) [1]: 5
- Ec (herbicidal effects, index) [2]: 5
- Ec (herbicidal effects, index) [3]: 4
- herbicidal effects, Eo (barnyard grass) [4]: 5

SMILES: CC(C)CC(c1cncnc1C(F)(F)F)N(C)C(=O)Cc1ccccc1 (racemic) [1-330]
- herbicidal effects, Mo (monochoria) [1]: 5
- Ec (herbicidal effects, index) [2]: 5
- Ec (herbicidal effects, index) [3]: 4
- herbicidal effects, Eo (barnyard grass) [4]: 5

SMILES: COCC(c1cncnc1C(C)C)N(C)C(=O)C(C)c1ccc(Cl)cc1 (mixture of isomers) [1-586]
- herbicidal effects, Mo (monochoria) [1]: 5
- Ec (herbicidal effects, index) [2]: 5
- Ec (herbicidal effects, index) [3]: 5
- herbicidal effects, Eo (barnyard grass) [4]: 5

SMILES: CC(C(=O)N(C)C(c1cncnc1C(F)(F)F)C(C)C)c1cccs1 (mixture of isomers) [2-62]
- herbicidal effects, Mo (monochoria) [1]: 5
- Ec (herbicidal effects, index) [2]: 5
- Ec (herbicidal effects, index) [3]: 4
- herbicidal effects, Eo (barnyard grass) [4]: 5

SMILES: CCCC(c1cncnc1C(C)C)N(C)C(=O)Cc1ccccc1 (racemic) [1-449]
- herbicidal effects, Mo (monochoria) [1]: 5
- Ec (herbicidal effects, index) [2]: 5
- Ec (herbicidal effects, index) [3]: 4
- herbicidal effects, Eo (barnyard grass) [4]: 5

SMILES: COc1ncncc1C(C(C)C)N(C)C(=O)Cc1ccc(F)cc1 (racemic) [1-402]
- herbicidal effects, Mo (monochoria) [1]: 5
- Ec (herbicidal effects, index) [2]: 5
- Ec (herbicidal effects, index) [3]: 5
- herbicidal effects, Eo (barnyard grass) [4]: 5

SMILES: CCc1ncncc1C(C(C)C)N(C)C(=O)Cc1ccccc1 (racemic) [1-432]
- herbicidal effects, Mo (monochoria) [1]: 5
- Ec (herbicidal effects, index) [2]: 5
- Ec (herbicidal effects, index) [3]: 5
- herbicidal effects, Eo (barnyard grass) [4]: 5

SMILES: Cc1ccc(N(C)C(=O)N(C)C(c2cncnc2C(C)C)C(C)C)cc1 (racemic) [1-431]
- herbicidal effects, Mo (monochoria) [1]: 5
- Ec (herbicidal effects, index) [2]: 5
- Ec (herbicidal effects, index) [3]: 4
- herbicidal effects, Eo (barnyard grass) [4]: 5

SMILES: CC(=O)c1ncncc1C(C(C)C)N(C)C(=O)Cc1ccccc1 (racemic) [1-526]
- herbicidal effects, Mo (monochoria) [1]: 5
- Ec (herbicidal effects, index) [2]: 5
- Ec (herbicidal effects, index) [3]: 5
- herbicidal effects, Eo (barnyard grass) [4]: 5

SMILES: CN(C(=O)Cc1ccc(Cl)cc1)C(c1cncnc1C(F)(F)F)C1(C)CC1 (racemic) [1-411]
- herbicidal effects, Mo (monochoria) [1]: 5
- Ec (herbicidal effects, index) [2]: 5
- Ec (herbicidal effects, index) [3]: 4
- herbicidal effects, Eo (barnyard grass) [4]: 5

SMILES: CCC(c1cncnc1C(C)(C)C)N(C)C(=O)Cc1ccc(F)cc1 (racemic) [1-571]
- herbicidal effects, Mo (monochoria) [1]: 4
- Ec (herbicidal effects, index) [2]: 5
- Ec (herbicidal effects, index) [3]: 4
- herbicidal effects, Eo (barnyard grass) [4]: 5

SMILES: CCCC(c1cncnc1C(C)C)N(C)C(=O)Cc1ccc(Cl)cc1 (racemic) [1-451]
- herbicidal effects, Mo (monochoria) [1]: 5
- Ec (herbicidal effects, index) [2]: 5
- Ec (herbicidal effects, index) [3]: 4
- herbicidal effects, Eo (barnyard grass) [4]: 5

SMILES: Cc1ccc(CC(=O)N(C)C(CC(C)C)c2cncnc2C(F)(F)F)s1 (racemic) [2-53]
- herbicidal effects, Mo (monochoria) [1]: 5
- Ec (herbicidal effects, index) [2]: 5
- Ec (herbicidal effects, index) [3]: 4
- herbicidal effects, Eo (barnyard grass) [4]: 5

SMILES: CCOCN(C(=O)Cc1ccc(C)cc1)C(c1cncnc1C(F)(F)F)C(C)C (racemic) [Compound 1-107]
- Herbicidal effect index, Mo [1, 8]: 5
- Ec (herbicidal effects, index) [3]: 4
- Herbicidal effect index, Eo [4, 8]: 5
- Or (herbicidal effect index on crop) [5]: 0
- Mo (herbicidal effect index) [6]: 5
- Eo (herbicidal effect index) [7]: 5

SMILES: CC(C)c1ncncc1C(C(C)C)N(C)C(=O)Cc1cccc(F)c1 (racemic) [Compound 1-270]
- herbicidal effects, Mo (monochoria) [1]: 5
- Ec (herbicidal effects, index) [2]: 5
- Ec (herbicidal effects, index) [3]: 4
- herbicidal effects, Eo (barnyard grass) [4]: 5

SMILES: Cc1ccc(C(C)C(=O)N(C)C(c2cncnc2C(F)(F)F)C(C)C)s1 (mixture of isomers) [2-60]
- herbicidal effects, Mo (monochoria) [1]: 5
- Ec (herbicidal effects, index) [2]: 5
- Ec (herbicidal effects, index) [3]: 4
- herbicidal effects, Eo (barnyard grass) [4]: 5
